Results on 11 compounds are retold here after patent publication US10450337B2, “Pharmaceutical compounds” (Rafael Pharmaceuticals, Inc., priority 2014, dated 2019).

What all share (assay type): cell-based
The subject of assay [1] is BXPC3 human pancreatic cancer cells. Nature of the assay: Cell kill screening, CellTiter Glo viability assay, BXPC3. The conditions noted are these: 24 hours treatment, 0.5% serum and 0.05% DMSO, relative to untreated control; for viability at 50 µM: BXPC-3, 50 μM, read-out: % avg live cells @ 50 μM (% Viable Cells Remaining); for viability at 100 µM: BXPC-3, 100 μM, read-out: % avg live cells @ 100 μM (% Viable Cells Remaining). The text has this:
(§1) The objective of this investigation was to assess the in vitro cell killing activities of analogs of lipoic acid in BXPC3 human pancreatic, 11460 non small lung carcinoma, and SF539 human gliosarcoma cancer cells.
(§2) Three human tumor cell types, BXPC3 human pancreatic cancer, H460 non small lung carcinoma, and SF539 human gliosarcoma, were used in this investigation. The BXPC3 and H460 cells were originally obtained from American Type Cell Culture (ATCC). The SF539 cells were originally obtained from the NCI AIDS and Cancer Specimen Bank (ACSB). All tumor cells were maintained at 37° C. in a humidified 5% CO2 atmosphere in T75 tissue culture flasks containing 20 mL of Roswell Park Memorial Institute (RPMI) 1640 containing 2 mM L-glutamine, 10% FBS and 1% penicillin and streptomycin (100 IU/mL penicillin and 100 μg/mL streptomycin). The tumor cells were split at a ratio of 1:5 every 4-5 days by trypsinization and resuspended in fresh medium in a new flask. Cells were harvested for experiments at 70-90% confluency.
(§3) Stock solutions of each analog were prepared at a concentration of 200 and 100 mM in DMSO. Five μL of this solution was diluted in 10.0 mL of 0.5% serum containing RPMI media to give the desired 100 μM and 50 μM solutions in 0.05% DMSO.
(§4) The cancer cells were seeded at 4000 cells/well for H460 cells and 6000 cells/well for BXPC3 and SF 539 cells and incubated 24 hours. The killing activity of analogs was assayed at 50 μM and 100 μM concentrations. The tumor cells were treated for 24 hours with the test article, and after 24 hours of treatment the number of viable tumor cells was determined using the CTG assay.
(§5) The number of cells targeted for the study is 4×10^3 per well for H460 cells and 6×10^3 per well for BXPC3 and SF539 cells in 100 μL of medium. The actual number of cells were counted and seeded in the wells of a 96 well-plate. The cells were incubated for approximately 24 hours before addition of test article.
(§6) The media in the plate was removed by aspiration, and 100 μL of the test article at a final concentration of 50 μM or 100 μM was added to the cells. After exposure to the test articles for 24 hours, the number of viable cells in each well was determined and the percent of viable cells relative to control (in the absence of test article) were calculated. Additionally, a set of wells was treated with cell culture medium in the absence of cells to obtain a value for background luminescence. A separate set of cells was seeded at the same time in a clear 96-well plate and observed under the microscope at 24 hours, following addition of the test article to estimate the amount of cells present after treatment.
(§7) The number of viable cells was determined by using the CTG assay. Specifically, reagents were mixed and allowed to come to room temperature according to instructions from Promega, Inc. (Madison, Wis.). Cell plates were removed from the cell culture incubator and left on the bench for thirty minutes until they reached room temperature. 100 μL per well of CTG reagent was added with the 12-channel Eppendorf pipettor. The cells were lysed by shaking the plate for two minutes in a shaker. The cells were kept in room temperature for ten minutes to stabilize the luminescent signal. The luminescence was measured using the FLUOstar OPTIMA plate reader (BMG Labtech, Inc., Durham, N.C.).
(§8) Data from luminescence readings was copied onto EXCEL spreadsheets, and cell growth relative to untreated cells was calculated, using the following equation: […]
In general terms: In ATP-based viability assays light output follows the ATP content of the culture.

Assay [2] deals with H460 non small lung carcinoma cells. Put plainly: Cell kill screening, CellTiter Glo viability assay, H460. As to conditions: Homo sapiens, 24 hours treatment, 0.5% serum and 0.05% DMSO, relative to untreated control; for viability at 50 µM: NCI-H460, 50 μM, read-out: % avg live cells @ 50 μM (% Viable Cells Remaining); for viability at 100 µM: NCI-H460, 100 μM, read-out: % avg live cells @ 100 μM (% Viable Cells Remaining).
From the text: as §1, §2, §3, §4, §5, §6, §7, §8

Assay [3] concerns SF539 human gliosarcoma cells. Put plainly: Cell kill screening, CellTiter Glo viability assay, SF539. The conditions noted are these: 24 hours treatment, 0.5% serum and 0.05% DMSO, relative to untreated control; for viability at 50 µM: SF-539, 50 μM, read-out: % avg live cells @ 50 μM (% Viable Cells Remaining); for viability at 100 µM: SF-539, 100 μM, read-out: % avg live cells @ 100 μM (% Viable Cells Remaining).
From the text: as §1, §2, §3, §4, §5, §6, §7, §8

For `O=C(CCCCC(CCSCc1ccccc1)SCc1ccccc1)OCc1ccccc1` (stereo not shown) [H], the results for the viability at 50 µM in assay [1], in assay [2] and in assay [3] were 92%, 110% and 97%, respectively. Besides, the viability at 100 µM in assay [1] amounted to 84%; in assay [2] it was 101%; in assay [3], 95%.
As for `O=C(O)CCCCCCC(CCSCc1ccccc1)SCc1ccccc1` (stereo not shown) [C], the values for the viability at 50 µM in assay [1], in assay [2] and in assay [3] were 2%, 3% and 5%, respectively. Besides, the viability at 100 µM came to 6% in assay [1], 15% in assay [2] and 20% in assay [3].
In the case of `O=C(CCCCC(CCSCc1ccccc1)SCc1ccccc1)NCCN1CCOCC1` (stereo not shown) [K], the viability at 50 µM in assay [1] was determined as 1%; in assay [2] it was 0%; in assay [3], 0%. Also, the viability at 100 µM in assay [1], in assay [2] and in assay [3] was 0% in each case.
Regarding `O=C(CCCCC(CCSCc1ccccc1)SCc1ccccc1)N1CCOCC1` (stereo not shown) [J], the viability at 50 µM in assay [1] came to 8.2%; in assay [2], 37.2%; in assay [3] it was 38.2%. Besides, the viability at 100 µM in assay [1] came out at 4.6%; in assay [2], 15.8%; in assay [3], 15.9%.
Turning to `CCN(CC)C(=O)CCCCC(CCSCc1ccccc1)SCc1ccccc1` (stereo not shown) [L], the viability at 50 µM in assay [1] stood at 28%; in assay [2], 58%; in assay [3], 58%. The viability at 100 µM in assay [1] turned out to be 14%; in assay [2], 18%; in assay [3], 32%.
Regarding `O=CCCCCC(CCSCc1ccccc1)SCc1ccccc1` (stereo not shown) [A], the values for the viability at 50 µM in assay [1], in assay [2] and in assay [3] were 37.6%, 44.9% and 29.4%, respectively. Besides, the viability at 100 µM came to 26.3% in assay [1], 29.9% in assay [2] and 28.1% in assay [3].
For `O=C(O)/C=C/CCCCC(CCSCc1ccccc1)SCc1ccccc1` (stereo not shown) [D], in assay [2], the viability at 50 µM amounted to 15.4% and the viability at 100 µM was 0%. Also, in assay [3], the viability at 50 µM was found to be 9.9% and the viability at 100 µM is 0%.
In the case of `O=C(CCCCC(CCSCc1ccccc1)SCc1ccccc1)NCCS(=O)(=O)O` (stereo not shown) [N], the viability at 50 µM was 126% in assay [1], 119% in assay [2] and 104% in assay [3]. In addition, the viability at 100 µM stood at 95% in assay [1], 89% in assay [2] and 75% in assay [3].
With `CCN(CC)CCNC(=O)CCCCC(CCSCc1ccccc1)SCc1ccccc1` (stereo not shown) [M], the viability at 50 µM in assay [1] came to 10.8%; in assay [2], 20.5%; in assay [3], 3.1%. In addition, the viability at 100 µM was found to be 1.4% in assay [1], 8.5% in assay [2] and 1.9% in assay [3].
As to `NC(=O)CCCCC(CCSCc1ccccc1)SCc1ccccc1` (stereo not shown) [I], the viability at 50 µM in assay [1], in assay [2] and in assay [3] was 1% in each case. Moreover, the viability at 100 µM was found to be 0% in assay [1], 0% in assay [2] and 1% in assay [3].
Take `O=C(O)CCCCC(CCNC(=O)OCc1ccccc1)NC(=O)OCc1ccccc1` (stereo not shown) [G]: the viability at 50 µM in assay [1] was determined as 82%; in assay [2], 89.1%; in assay [3], 97.3%. Further, the viability at 100 µM was 72.6% in assay [1], 87% in assay [2] and 79.6% in assay [3].
